# In patent publication US6106744A, “Photochromic pyrano-fused naphthopyrans” (PPG Industries Ohio, Inc., priority 1997, dated 2000):
# What was measured:
# [1] = lambda max (Vis) of activated form in test square polymerizates (Varian Cary 3 UV-Visible spectrophotometer); type: physicochemical; conditions: activated (colored) form in test square; BPA 2EO DMA / poly(ethylene glycol) 600 dimethacrylate polymer
# Experimental: (§1) Testing was done with the photochromic compounds prepared in Examples 1, 2, 3 and 4 in the following manner. A quantity of each photochromic compound calculated to yield a 1.5×10^-3 molal solution was added to a flask containing 50 grams of a monomer blend of 4 parts ethoxylated bisphenol A dimethacrylate (BPA 2EO DMA), 1 part poly(ethylene glycol) 600 dimethacrylate, and 0.033 weight percent 2,2'-azobis(2-methyl propionitrile) (AIBN). Each photochromic compound was dissolved into the monomer blend by stirring and gentle heating. After a clear solution was obtained, it was poured into a flat sheet mold having the interior dimensions of 2.2 mm×6 inches (15.24 cm)×6 inches (15.24 cm). The mold was sealed and placed in a horizontal air flow, programmable oven programmed to increase the temperature from 40° C. to 95° C. over a 5 hour interval, hold the temperature at 95° C. for 3 hours, lower it to 60° C. over a 2 hour interval and then hold at 60° C. for 16 hours. After the mold was opened, the polymer sheet was cut using a diamond blade saw into 2 inch (5.1 centimeters) test squares.
# The Δ OD/Min, which represents the sensitivity of the photochromic compound's response to UV light, was measured over the first five (5) seconds of UV exposure, then expressed on a per minute basis. The saturation optical density (Δ OD@ Saturation) was taken under identical conditions as the Δ OD/Min, except UV exposure was continued for 15 minutes. The lambda max (Vis) is the wavelength in nanometers (nm) in the visible spectrum at which the maximum absorption of the activated (colored) form of the photochromic compound in a test square occurs. The lambda max (Vis) wavelength was determined by testing the photochromic test square polymerizates of Part A in a Varian Cary 3 UV-Visible spectrophotometer. The Bleach Rate (T 1/2) is the time interval in seconds for the absorbance of the activated form of the photochromic compound in the test squares to reach one half the highest absorbance at room temperature (72° F., 22.2° C.) after removal of the source of activating light.
# [2] = Photochromic response of test squares on an optical bench; type: physicochemical; conditions: for Sensitivity ΔOD/min: first five (5) seconds of UV exposure, expressed per minute, 72° F. (22.2° C.), 0.15 to 0.20 mW/cm^2; for Bleach Rate T 1/2: time to one half the highest absorbance at room temperature (72° F., 22.2° C.) after removal of activating light
# Experimental: as §1
# The photochromic test squares prepared in Part A were tested for photochromic response on an optical bench. Prior to testing on the optical bench, the photochromic test squares were exposed to 365 nanometer ultraviolet light for about 15 minutes to activate the photochromic compounds and then placed in a 76° C. oven for about 15 minutes to bleach or inactivate the photochromic compounds. The test squares were then cooled to room temperature, exposed to fluorescent room lighting for at least 2 hours and then kept covered for at least 2 hours prior to testing on an optical bench maintained at 72° F. (22.2° C.). The bench was fitted with a 150 watt Xenon arc lamp, a remote controlled shutter, a copper sulfate bath acting as a heat sink for the arc lamp, a Schott WG-320 nm cut-off filter which removes short wavelength radiation; neutral density filter(s) and a sample holder in which the square to be tested was inserted. The power output of the optical bench, i.e., the dosage of light that the sample lens would be exposed to, was calibrated with a photochromic test square used as a reference standard. […] The UV-A detector was placed into the sample holder and the light output was measured. […]
# A monitoring, collimated beam of light from a tungsten lamp was passed through the square at a small angle (approximately 30° ) normal to the square. After passing through the square, the light from the tungsten lamp was directed to a detector through Spectral Energy Corp. GM-200 monochromator set at the previously determined visible lambda max of the photochromic compound being measured. […]
# Change in optical density (ΔOD) was determined by inserting a test square in the bleached state into the sample holder, adjusting the transmittance scale to 100% opening the shutter from the Xenon lamp to provide ultraviolet radiation to change the test square from the bleached state to an activated (i.e., darkened) state, measuring the transmittance in the activated state, and calculating the change in optical density according to the formula: ΔOD=log (100/%Ta), where %Ta is the percent transmittance in the activated state and the logarithm is to the base 10.
# The Δ OD/Min, which represents the sensitivity of the photochromic compound's response to UV light, was measured over the first five (5) seconds of UV exposure, then expressed on a per minute basis. […]
smiles,measurement,setting,value
"Cc1ccc2c3c(c4c(c2c1)C=C(C(c1ccccc1)c1ccccc1)OC4)C=CC(c1ccccc1)(c1ccc(N2CCOCC2)cc1)O3 (centres unmarked) [Example 4, 2-phenyl-2-(4-morpholinophenyl)-7-diphenylmethyl-10-methyl-2,5-dihydro-pyrano[3',4':3,4]naphtho[1,2-b]pyran]",lambda max (Vis),[1],592 nanometers
same,Sensitivity ΔOD/min,[2],0.39 ΔOD/min
same,Bleach Rate T 1/2,[2],281 s
"Cc1ccc2c3c(c4c(=O)oc(C(c5ccccc5)c5ccccc5)cc4c2c1)C=CC(c1ccccc1)(c1ccccc1)O3 [Example 1, 2,2-diphenyl-7-diphenylmethyl-10-methyl-2,5-dihydro-5-oxo-pyrano[3',4':3,4]naphtho[1,2-b]pyran]",lambda max (Vis),[1],492 nanometers
same,Bleach Rate T 1/2,[2],50 s
"COc1ccc(C2(c3ccc(OC)cc3)C=Cc3c4c(c5cc(C)ccc5c3O2)C=C(C(c2ccccc2)c2ccccc2)OC4)cc1 [Example 3, 2,2-di(4-methoxyphenyl)-7-diphenylmethyl-10-methyl-2,5-dihydro-pyrano[3',4':3,4]naphtho[1,2-b]pyran]",lambda max (Vis),[1],569 nanometers
same,Sensitivity ΔOD/min,[2],0.33 ΔOD/min
same,Bleach Rate T 1/2,[2],182 s
